“Also recorded” adds a separate entry of the source.
Experiments:
[1] = test system: p-MEK in A375 cells; assay: Wash-out and recovery of MAPK signaling in A375 cells; assay type: cell-based; conditions: for relative p-MEK1/2 after washout: A375, 500 nM for 1 hr, then washout
Method: Wash-out experiments were conducted in A375 cells. After treatment with inhibitors at 500 nM for 1 h (on time), cells were incubated with fresh medium for the indicated times (off time). p-MEK levels were determined by WB and were quantified by densitometric analysis. p-MEK levels were normalized to total ERK1/2 which was used as loading control and control cells (DMSO treatment). Data were fit to an exponential model using least squares, to obtain apparent half-life (t1/2) values.
(§1) Densitometric data for p-ERK, p-MEK, ERK1/2 (MAPK cellular activity) or BRAF and GAPDH (CETSA analysis) from western blot scanned films were obtained using Image Studio software (LI-COR). Data were corrected to loading control (total ERK1/2 or GAPDH) and normalized to DMSO treated bands (100%) and blot backgrounds (0%). IC50 or Tm values were obtained from non-linear regression fits of normalized data to a four-parameter logistic curve (4PL).

[2] = test system: p-ERK1/2 and p-MEK1/2 in SKMEL239-C4 cells; assay: Wash-out and recovery of MAPK signaling in SKMEL239-C4 cells; assay type: cell-based; conditions: SKMEL239-C4, 500 nM for 1 hr, then washout
[3] = test system: SK-MEL-239-C4 cells; assay: Cell viability (Cell-Titer Glo), SK-MEL-239-C4; assay type: cell-based; conditions: SK-MEL-239-C4, 72 hr
Method: (§2) For cell viability and proliferation assays, we followed the manufacturer's protocol for Cell-Titer Glo (Promega). In brief, cells were plated in 96-well plates at a density of 5000 cells per well. The next day, cells were treated with increasing concentrations of inhibitors for 72 hours at 37° C. At the end of the incubation period, 100 μL of Cell-Titer Glo (Promega) was added to each well and further incubated for 15 min at room temperature. Cell viability was determined by measuring luminescence and was detected by a F200 PRO microplate reader (TECAN). Viability assays were performed in at least triplicate and the data normalized to vehicle-treated control wells. IC50 values were determined by nonlinear regression analysis using Prism software (Graphpad). Antiproliferative synergy was determined by co-treatment of inhibitors at indicated concentrations in 96-well plated at a density of 3000 cells per well. Inhibitors or DMSO control were injected using a D300e digital dispenser (TECAN). Extend of synergy was quantified using the BLISS matrix method.

[4] = test system: pERK in melanoma A375 cells expressing BRAF^V600E; assay: pERK inhibition in A375 cells (Western blot densitometry); assay type: cell-based; conditions: 1 hr treatment
Method: Western blots were performed from whole cell lysates (WCLs) prepared in lysis buffer containing 50 mM Tris-HCl pH7.5, 1% NP40, 150 mM NaCl, 1 mM EDTA and 10% glycerol in the presence of protease inhibitor cocktail (Roche). WCLs were separated on a 4-12% NuPAGE MES gel (Invitrogen), transferred onto a PVDF membrane, blocked for lhr and immunoblotted with the corresponding antibodies.
as §1

[5] = biological target: full length BRAF^V600E (Homo sapiens, UniProt P15056, V600E); assay: In vitro residence time (ATP-site tracer T178 displacement, LanthaScreen); assay type: binding; conditions: kinase ATP-probe displacement
Method: Residence times of inhibitors to recombinant full-length BRAF was determined using an adaptation of the LanthaScreen Eu Kinase Binding Assay (Invitrogen). Initially, binding of inhibitors to his-tagged BRAF labelled with Eu-anti-his antibody at 80-90% saturation was established, by incubating inhibitors and BRAF in PBS buffer (max DMSO 2%) for […] The reactions were then rapidly diluted 25× times in a saturated concentration of the fluorescent ATP-site tracer T178 (Invitrogen). Dissociation of inhibitors from BRAF by T178 tracer was monitored in real-time by detecting the TR-FRET […] to […] emission ratio every 20 sec. The TR-FRET signal was normalized between 100% (no inhibitors present) and 0% (saturated inhibitor binding). Time traces were fit to a single exponential to obtain the half-life (t1/2) of dissociation of inhibitors. Residence times for each inhibitor were calculated as (t1/2)/ln2.

[6] = biological target: T1, BRAF^V600E (Homo sapiens, UniProt P15056, V600E); assay: Cellular Thermal Shift Assay (CETSA) in A375 cells; assay type: cell-based; parameters: endogenous in cells; host or cells: A375 melanoma cells; conditions: A375 cells, 1, 5 and 20 μM
Text: as §1
For CETSA analysis, cultured A375 melanoma cells were washed with Dulbecco's phosphate buffered saline (DPBS) and split into 500 μL aliquots (each containing 3,75 million cells) in the same buffer, containing DMSO control (20 μM) or 1, 5 and 20 μM of DAB or DABK. The samples were incubated for 1 hr at room temperature, rotating. After compound incubation, samples (50 μL each) were transferred in PCR tubes and incubated for 3 min in a temperature gradient produced with a C1000 thermal cycler (Bio-Rad). Cells were immediately lysed by repeating freeze-thaw cycles (3× times) in liquid nitrogen. Lysates were spun in a microcentrifuge at 15.000× g for 15 min at 4° C. Equal volumes of supernatants were run on 15-well 4-12% NuPAGE SDS-PAGE gels (Invitrogen), and analyzed by western blot. Results were quantitated by densitometric analysis and were normalized to GAPDH loading control, which is temperature insensitive under these conditions. […]

[7] = test system: A375 cells; assay: Cell viability (Cell-Titer Glo), A375; assay type: cell-based; conditions: Homo sapiens, A-375; A375, 72 hr
Method: as §2

[8] = test system: RKO cells; assay: Cell viability (Cell-Titer Glo), RKO; assay type: cell-based
Method: as §2

[9] = Pharmacokinetic profile, mouse plasma levels after oral gavage; assay type: in vivo, CD-1 female mice; conditions: 5 mg/kg
Method: (§3) The pharmacokinetic profile of DAB and DABK was assessed in CD-1 female mice after a single dose at 5 mg/kg by oral gavage. Blood samples were collected at various time points (0.5, 1, 2, 4, 6, 12 and 24 hr after oral gavage) and inhibitor concentrations in plasma determined by an internal standard HPLC-chromatography tandem mass spectrometry method using calibration standards prepared in blank mouse plasma. Reported plasma concentrations are average values from 3 mice per time point. For PD study, tumor xenografts were established by subcutaneous implantation of A375 melanoma cells plus Matrigel (BD Biosciences) into the right flank of female SCID mice. Mice were randomized to treatment and control groups when the average tumor volume reached 100-150 mm^3 and were treated with a single oral dose (PO) of either vehicle or inhibitors at 5 mg/kg. Tumors were harvested at 2, 12 and 24 hr post PO (3 mice per group). Harvested tumors were homogenized in lysis buffer containing 50 mM Tris-HCl pH7.5, 1% NP40, 150 mM NaCl, 1 mM EDTA, 10% glycerol and phosphatase/protease inhibitors. pERK levels in clarified lysates were determined by Western Blotting and were expressed as % inhibition by normalization to average levels from vehicle tumors (0% inhibition). Vehicle formulation for DAB and DABK treatment in both PK and PD was 30% PEG-400, 0.5% Tween-20, 5% Glycerol in PBS.

[10] = test system: pERK in A375 xenograft tumors; assay: Pharmacodynamic study, pERK in A375 xenograft tumors; assay type: in vivo, female SCID mice; conditions: 5 mg/kg single oral dose, A375 mice xenograft
Method: as §3

[11] = biological target: T1, BRAF^V600E; assay: LanthaScreen Eu kinase binding assay
Method: Binding affinity of inhibitors to recombinant full-length BRAF was determined using the LanthaScreen Eu Kinase Binding Assay (Invitrogen) in PBS buffer. Initially, saturated binding of fluorescent Alexa Fluor 647 ATP-site tracer T178 (Invitrogen) on BRAF, which was his-tagged at the N-terminus, was established. T178 tracer was then competed-off by increasing amounts of inhibitors in titration experiments in 96-well plates. Competition was detected by loss of TR-FRET signal. The signal was produced by a FRET pair between an Eu-labeled anti his-tag antibody, which recognizes his-tagged BRAF used in the assay, and the T178 tracer. The europium donor was excited using a 340 nm excitation filter and energy transfer to the T178 tracer was measured using a filter centered at 665 nm with a time delay of 200 μs. The emission ratio was calculated as the 665 nm signal divided by the 615 nm signal. The apparent % inhibition was calculated by least squares fits of the emission ratio. […] The maximum DMSO concentration in the assay was 2%.

[12] = test system: A549 cells; assay: Cell viability and antiproliferative synergy with cobimetinib (Bliss matrix), A549; assay type: cell-based; conditions: A549, combination with cobimetinib (COB)
Method: as §2

[13] = test system: panel of 97 kinases; assay: KinomeScan; assay type: binding; conditions: competition screen
[14] = biological target: T1, BRAF^V600E; assay: Z'-LYTE kinase activity assay, BRAF^V600E; assay type: biochemical; conditions: equilibrium; ZLYTE
Method: BRAF kinase assays were performed using the Z′-LYTE™ enzymatic assay (Invitrogen, USA). […] Titrations were performed using a 1:3 dilution. Assays were performed using SelectScreen (Invitrogen).

Chain of full length BRAF^V600E (P15056 whole entry V600E): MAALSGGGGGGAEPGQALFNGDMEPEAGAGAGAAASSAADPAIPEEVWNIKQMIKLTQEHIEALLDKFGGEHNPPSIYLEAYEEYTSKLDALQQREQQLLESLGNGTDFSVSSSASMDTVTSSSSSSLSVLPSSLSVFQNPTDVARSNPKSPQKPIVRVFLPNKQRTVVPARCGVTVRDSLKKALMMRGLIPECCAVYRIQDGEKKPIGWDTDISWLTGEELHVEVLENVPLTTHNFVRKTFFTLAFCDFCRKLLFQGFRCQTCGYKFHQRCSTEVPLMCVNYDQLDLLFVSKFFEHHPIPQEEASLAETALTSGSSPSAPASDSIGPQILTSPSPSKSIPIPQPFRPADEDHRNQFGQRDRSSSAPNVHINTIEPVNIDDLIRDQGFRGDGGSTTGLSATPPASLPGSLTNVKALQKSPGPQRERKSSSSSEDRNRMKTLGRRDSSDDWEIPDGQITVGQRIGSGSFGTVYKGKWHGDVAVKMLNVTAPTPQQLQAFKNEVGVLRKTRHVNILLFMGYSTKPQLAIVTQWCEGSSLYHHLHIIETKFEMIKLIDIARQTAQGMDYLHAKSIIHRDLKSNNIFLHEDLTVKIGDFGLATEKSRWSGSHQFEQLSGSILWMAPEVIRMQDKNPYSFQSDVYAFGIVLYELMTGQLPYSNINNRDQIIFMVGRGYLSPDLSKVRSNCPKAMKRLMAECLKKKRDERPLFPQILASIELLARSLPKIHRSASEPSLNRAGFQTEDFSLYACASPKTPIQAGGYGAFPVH
T1 sequence (P15056 whole entry V600E): as above

Structure (SMILES) | relative p-MEK1/2 after washout [1] | p-MEK1/2 inhibition after washout [2] | relative p-ERK1/2 after washout [2] | IC50 ([3]; 72 h) [µM] | IC50 [3] [µM] | IC50 of pERK inhibition [4] | apparent in vitro residence time (Koff) [5] | melting temperature (Tm) [6] | IC50 [7] [µM] | IC50 ([8]; 72 hr) [µM] | IC50 ([8]; Homo sapiens, 72 h) [µM] | also measured
C[C@@H](CNc1nccc(-c2sc(C(C)(C)C)nc2-c2cccc(NS(=O)(=O)c3c(F)cccc3F)c2F)n1)NC(=O)CCO [Compound K6] | prolonged signaling inhibition over time | Almost complete p-MEK1/2 inhibition over time | prolonged ERK signaling inhibition over time |  |  |  |  |  |  |  |  | 
COC(=O)N[C@@H](CN)CNc1nccc(-c2sc(C(C)(C)C)nc2-c2cccc(NS(=O)(=O)c3c(F)cccc3F)c2F)n1 [Compound K8] | prolonged signaling inhibition over time | Almost complete p-MEK1/2 inhibition over time | prolonged ERK signaling inhibition over time |  |  |  |  |  |  |  |  | 
CC(C)(C)c1nc(-c2cccc(NS(=O)(=O)c3c(F)cccc3F)c2F)c(-c2ccnc(N)n2)s1 [DAB, dabrafenib] |  |  |  | > 0.4 | 0.456 | lower IC50 | significantly shorter residence times | very similar | 0.0053 | 0.425 | > 0.4 | 
COC(=O)N[C@@H](C)CNc1nccc(-c2sc(C(C)(C)C)nc2-c2cccc(NS(=O)(=O)c3c(F)cccc3F)c2F)n1 [DABK] | prolonged signaling inhibition over time | Almost complete p-MEK1/2 inhibition over time | prolonged ERK signaling inhibition over time | 0.035 | 0.0353 | comparable IC50 to Enco | sustained binding in the time frame of the experiment | very similar | 0.0034 | 0.0206 | 0.02 | half-life of recovery of pMEK inhibition ([1]; A375, 500 nM for 1 h, then wash-out): 2.5 hours; retention of p-MEK inhibition relative to DAB ([1]; A375 wash-out, times longer than DAB): approximately 4.4 times; clearance from the blood [9]: faster clearance from the blood than DAB; endurance of pERK inhibition in tumors [10]: > 12 hr; Kd, binding affinity [11]: low nM range; extent of antiproliferative synergy [12]: strong synergy; targeting selectivity across the kinome [13]: improved compared to DAB's; also recorded: improved targeting selectivity across the kinome; also recorded: higher specificity than DAB; IC50, kinase inhibitory activity [14]: low nM range
COC(=O)N[C@@H](C)CNc1nccc(-c2cn(C(C)C)nc2-c2cc(Cl)cc(NS(C)(=O)=O)c2F)n1 [Enco, encorafenib] |  |  |  | > 0.4 |  |  | sustained binding in the time frame of the experiment |  |  |  | > 0.4 | 
CCCS(=O)(=O)Nc1ccc(F)c(C(=O)c2c[nH]c3ncc(-c4ccc(Cl)cc4)cc23)c1F [VEM, vemurafenib] |  |  |  | > 0.4 |  |  |  |  |  |  | > 0.4 | 
